In patent US6479466B1, “Compositions for treating viral infections, and methods therefor” (University of Maryland, priority 1999, dated 2002):
Counter-ions that a name gives are not always drawn. Like-named read-outs stand apart in the source and are kept apart here.

What was measured:
[1] = test system: HTLV-IIIB; assay: p24 antigen production in PHA-activated PBMCs infected with HTLV-IIIB; assay type: cell-based, HIV-1; conditions: for IC90: read-out: IC90 (concentration of nucleoside analog that reduced the p24 antigen value of the untreated control by 90%)
Source text: The antiviral activities of RV alone and in combination with nucleoside analogs were investigated in PHA-stimulated PBMCs from seronegative donors. RV, ddC, ddI, and AZT were purchased from Sigma (St. Louis, Mo.). The HIV-1 T-cell line adapted isolate HTLV-IIIB was obtained from Dr. Gallo, at the National Institutes of Health AIDS Research and Reference Reagent Program (Catalog #398, Rockville, Md.). Primary strains of HIV-1 were isolated by coculturing 10^7 patient PBMC with an equal number of PHA-stimulated PBMC from a normal donor. Titration of stocks and MT-2 phenotype determination were carried out as described (ACTG Virology Manual, NIH Pub No. 94 3828, 1994). The SI phenotype was determined by assessing viral growth and syncytia formation in the MT-2 cell line obtained from Dr. Richman at the National Institutes of Health AIDS Research and Reference Reagent Program (Catalog #237, Rockville, Md.).
Primary PBMCs were separated from whole blood of HIV seronegative donors by density centrifugation over Ficoll-Hypaque (Sigma). The culture medium consisted of RPMI supplemented with 10% fetal bovine serum (FBS), 2 mM glutamine and penicillin/streptomycin (Gibco, Grand Island, N.Y.).
For infection studies involving PBMCs, cells were stimulated with 2.5 or 10 μg/ml phytohemagglutinin (PHA; Boehringer Mannheim, Indianapolis, Ind.) for 3 days. Stimulated PBMCs were infected by incubation with virus at a multiplicity of infection of 1000 TCID50/10^6 PBMC for 2 hours. PBMCs were then washed three times with PBS and cultured in 5% CO2 at 37° C., in RPMI/10% FBS supplemented with 10 units/ml IL-2 (Boehringer Mannheim) and drugs as appropriate. PBMCs were seeded in 96-well flat-bottom plates at a density of 2×10^5 PBMCs/200 μl. Following 3 days of culture half of the medium was replaced with fresh medium containing IL-2 and drugs. After 7 days of culture, HIV-1 p24 antigen production in the culture supernatant was assayed by ELISA (Coulter, Hialeah, Fla.). The concentration of nucleoside analog, alone and in combination with resveratrol, that reduced the p24 antigen value of the untreated control by 90% (IC90) was calculated by using nonparametric regression analysis. The analysis used the median-effect equation, Fa=1/[1+(Dm/D)]^m, where D is the dose, Fa is the fraction affected, and Dm is the dose required to produce the median effect.
Cells were infected with the T-cell tropic isolate HTLV-IIIB for 2 hours, and then cultured in varying concentrations of RV with or without nucleoside analogs. Virus replication was measured by p24 antigen production by ELISA using a standard commercial kit in the culture supernatants on days 7 and 10 after infection.
Activated PBMCs infected with HTLV-IIIB were cultured in the presence of ddI plus HU (100 μM) or RV (5 and 10 μM). […] Virus production in the presence of the different drug concentrations was evaluated on day 7 after infection.

[2] = test system: PHA-stimulated PBMCs; assay: MTT cell proliferation assay in PHA-stimulated PBMCs; assay type: cell-based, human; conditions: human, 5 days, 100 μM
Procedure: The effect of RV and […] on PBMC proliferation at the concentrations shown to enhance the anti-HIV effect of ddI were examined. Cellular proliferation in culture in the presence or absence of drugs was measured by commercial MTT assay, according to the manufacturer's instructions (Boehringer Mannheim). Cell viability was determined by trypan blue staining.
Proliferation was measured on PHA-stimulated PBMCs cultured in the presence of IL-2, 2 μM ddI, and RV or HU. The MTT assay was performed on days 2 and 5 (FIG. 8), and days 2 and 7 (FIG. 20) after the addition of the drugs. […] On day 5, RV at 10 μM inhibited proliferation by 30%, whereas HU inhibited proliferation by 40 to 50%, depending on the donor.
Proliferating PBMCs were cultured in the presence of RV or HU for 5 days. On day 2 and 5 an MTT assay and a ^3H-thymidine incorporation assay were performed. The MTT is a […] assay that measures cellular metabolic activity and directly correlates to the number of cells in the culture. The ^3H-thymidine incorporation assay relies on the incorporation of the radioactive nucleoside ^3H-thymidine into newly synthesized DNA. […] These differences between the effects of RV and HU were even more striking in the MTT and ^3H-thymidine incorporation assays conducted on day 5 (FIG. 12 and FIG. 13, respectively).

[3] = test system: PHA-activated PBMCs; assay: 3H-thymidine incorporation (DNA synthesis) assay in proliferating PBMCs; assay type: cell-based, human; conditions: HU 100 μM; day 2
Procedure: For example, a thymidine incorporation assay using PBMC's may be carried out as follows. PBMC's are suspended, then 0.1 ml (100,000) of cells are added to each designated well of a 96-well plate. The plates are placed into a 37° C., 5% CO2, 95% humid incubator for the predetermined incubation periods—normally 2 and 5 days. At the end of the incubation period, and at a standard time prior to harvesting the plate (6-18 hours), 1.0-1.5 μCi (20 μl of 50-75 mCi/ml in complete medium) of [^3H]-labeled methyl thymidine is added to each well of the assay. The plates are then incubated for the remaining 6-18 hours. At the end of the [^3H]-thymidine pulse, the plates are harvested onto filter paper using a semi-automated multi-well harvester. The filter paper containing bound DNA may be dried using either ethanol or by moderate microwave heating. The filter paper samples are counted in a scintillation counter using standard procedures.

[4] = test system: HTLV-IIIB; assay: p24 antigen in infected resting T-lymphocytes exposed to drugs for 6 days before PHA activation; assay type: cell-based, HIV-1; conditions: ddC 0.1 μM or AZT 4 μM in combination with RV
Procedure: The effect of RV and nucleoside analogues in infected resting T-lymphocytes was evaluated in the present example. Purified resting cells were used. Absence of activated lymphocytes in the preparation was determined by incubation of the cells in the presence of a monoclonal antibody directed against the low affinity IL-2 receptor CD25 (Pharmingen, San Diego, Calif.), and subsequent analysis by flow cytometry. […] Cells were infected with HTLV-IIIB at a multiplicity of infection of 10^4 TCID50/10^6 cells for 3 hours. A high multiplicity of infection (m.o.i.) was used because of a reported short half life of HIV-1 unintegrated DNA in infected resting lymphocytes. Infected cells were washed 3 times with PBS to remove virus excess and resuspended in 10% FBS RPMI medium supplemented with drugs. To ensure that any antiviral activity exerted by the drugs occurred during the resting state, drugs were removed six days after infection by washing with PBS 3 times, and cells were activated by culturing in the presence of PHA for 2 days. Cells were then cultured in IL-2 medium without drugs, and supernatants were monitored for the presence of p24 antigen. Cultures were maintained for 20 days.
Purified resting T-lymphocytes from a seronegative donor were infected with HTLV-IIIB at the high multiplicity of infection and cultured in the presence of 5 or 10 μM RV plus ddI (0, 0.25, 0.5 μM), ddC (0, 0.1 μM) or AZT (0, 4 μM) for 6 days. Concentrations used for ddC and AZT correspond to the highest, nontoxic concentration attainable in plasma of treated individuals. […] On day 6 after infection, drugs were washed away and cells were activated with PHA. The extent of viral replication was evaluated on day 6 (prior to PHA activation) and days 14 and 20 after infection. On day 6 very low amounts of p24 antigen could be detected under every condition tested, likely representing residual virus from the infecting inoculum. […] No toxicity was found by the MTT assay in uninfected culture controls treated with 5 μM RV and 0.5 μM ddI for 20 days under the same conditions.

[5] = test system: mutations 65R, 74V, 184V, and 115F in the RT gene; conditions: cited from earlier work

NC(=O)NO [HU, Hydroxyurea]
reduction of virus production ([1]; HU 100 μM alone, day 7): approximately 20%
inhibition at 100 µM ([1]; Human immunodeficiency virus 1, IIIB, PBMC, 168 h, 100 μM HU combined with 0.5 μM ddI, day 7, read-out: inhibition of virus replication): > 99%
inhibition at 100 µM ([1]; Human immunodeficiency virus 1, IIIB, PBMC, 168 h, 100 μM HU in combination with 0.25 μM ddI, day 7, read-out: inhibition of HIV-1 replication): 91%
inhibition of proliferation [2]: 40 to 50%
3H-thymidine incorporation (DNA synthesis) [3]: much lower than the untreated control

Cc1cn([C@H]2C[C@H](N=[N+]=[N-])[C@@H](CO)O2)c(=O)[nH]c1=O [AZT, 3′-azido-2′,3′-dideoxythymidine]
IC90 ([1]; Human immunodeficiency virus 1, IIIB, PBMC, 168 h, in combination with 5 μM RV, day 7): 15 nM
IC90 ([1]; Human immunodeficiency virus 1, IIIB, PBMC, 168 h, nucleoside analog alone, day 7): 25 nM
reduction of IC90 value ([1]; in combination with 5 μM RV): 1.6 fold
reduction of IC90 value ([1]; in the presence of 10 μM RV): 3.1 fold
virus replication after PHA activation [4]: failed to suppress virus replication

Nc1nc(NC2CC2)c2ncn([C@H]3C=C[C@@H](CO)C3)c2n1 [abacavir, (1C, CiS)-4-(2-amino-6-(cyclopropylamino)—9H-purin-9-yL)-2-cyclopentene-1-methanol sulfate (salt) (2:1)]
resistance to the drug ([5]; mutants harboring 2 or 3 of these mutations): approximately 10 fold
decrease in susceptibility ([5]; single mutations 65R, 74V, 184V, and 115F): 2-3 fold

Nc1ccn([C@H]2CC[C@@H](CO)O2)c(=O)n1 [ddC, 2′,3′-dideoxycytosine]
reduction of IC90 value ([1]; in combination with 5 μM RV): 3.3 fold
IC90 ([1]; in combination with 5 μM RV, day 7): 80 nM
reduction of IC90 value ([1]; in the presence of 10 μM RV): 5.4 fold
IC90 ([1]; nucleoside analog alone, day 7): 270 nM
virus replication after PHA activation [4]: failed to suppress virus replication
